Marks after values point to notes of the source that are not given here.
Test system: Immune cell subsets
Test: Human HIV clinical protocol: immune phenotypes by flow cytometry
Format: in vivo
Details: for CD8+CD16+CD38+ cells, median: Baseline 8; for CD8−CD16+ cells, median: Baseline 53; for CD8+CD69+CD25− cells, median: Baseline 18; for Activated T cells (CD8+ CD69+ CD25−), median: about 1 week after last dose
Method: Patients infected with HIV are dosed with an i.m. injection of 25-200 mg of BrEA using a formulation containing 100 mg/mL BrEA, PEG300 ˜30% v/v, propylene glycol 30% v/v, benzyl benzoate 30% v/v and benzyl alcohol 2% v/v. The pateints are dosed once per day for 5 consecutive days followed by a period of about 28 days or longer with no BrEA treatment. The patients were them provided with one more course of 5 consecutive days of dosing with BrEA, followed by a non-dosing period of at least about 28 days. Up to 8 rounds of 5-day treatments, followed by at least 28 days of no dosing were provided. Immunological responses were then assayed using blood or plasma samples from the patients by flow cytometry and other known analytical methods. Immune cell subsets or other measured markers were assayed within 24 hours of obtaining the sample from each patient. Labeled antibodies, e.g., anti-CD antigen antibodies conjugated with fluorescent dyes (FITC, phycoerythrin, allophycocyanin or PerCP), were prepared and used essentially according to standard protocols using commercially available reagents, see, e.g., PharMingen, 1998 Research Products Catalog, technical protocols at pages 732-774, human cell surface molecules at pages 182-295 and mouse, rat and hamster cell surface molecules at pages 2-173 and cytokine and chemokine reagents at pages 344-489.
Otherwise untreated patients with CD4 counts of ≧200/μL and HIV-1 viral RNA between 5,000 and 1,000,000 copies/mL (branched-DNA, version 3.0, Bayer, Tarrytown, N.Y.) provided informed consent and were enrolled into a Phase I/II dose-escalation study of the safety and efficacy of intramuscular injections of BrEA. The protocol was conducted in South Africa. In the first cohort, four patients received an initial injection of 1 mL (50 mg), followed by a safety and pharmocokinetic study for seven days, and then received five daily injections of 1 mL (50 mg). The second cohort of 8 patients was randomized in a 1:2 ratio to receive either 50 mg (1 mL) or 100 mg (2 mL) on the same schedule. Patients were allowed at the discretion of the investigators to receive up to three additional courses each, repeated after 28 days of observation. The protocol was amended to introduce an improved formulation, and to extend the initial pharmacokinetic and safety period to 14 days, the observation period following the five daily doses to 35 days, and to allow up to 7 treatment courses. A third cohort of 24 patients was randomized in a 1:2:4 ratio to receive either 50 mg (0.5 mL), 100 mg (1 mL), or 200 mg (2 mL) of BrEA. The patients were all male, since initial safety studies are not permitted in females in South Africa. Within the group of 39 patients randomized, the ethnic demographic included was 18 Caucasian, 17 African, and 4 other. The average age was 34 (range 20-63), the average initial CD4/μL was 434 (range 176-1210), and the average viral load was 13,772 copies/mL (range 3,020-158,489). Patients underwent physical examinations and provided samples for chemistry, hematology, virology and immunology testing approximately every two weeks.
Course 1, 2 and 3 refer to each 5 consecutive day treatment regimen of one daily injection with BrEA (50 or 100 mg BrEA per injection). The formulation contained 100 mg/mL BrEA, PEG300 ˜30% v/v, propylene glycol 30% v/v, benzyl benzoate 30% v/v and benzyl alcohol 2% v/v. The data shown below was obtained from patient blood samples at baseline (on the day dosing was initiated) and at various times after the patients received at least one dose of BrEA. […] The patients in this protocol initially had CD4 counts of at least 200 per mm^3 and a serum HIV RNA load of 5,000 to 1×10^6 RNA copies/mL. […] Average CD4 IL-10 production dropped from a median of 66% to 4% of the cells, while CD4 IFNγ went from a median of 8% to 63%, leading to a Th2 to a Th1 shift in cytokine production. […]

SMILES: C[C@]12CC[C@H](O)C[C@@H]1CC[C@@H]1[C@@H]2CC[C@]2(C)C(=O)[C@H](Br)C[C@@H]12 [BrEA, 16α-bromo-3β-hydroxy-5α-androstane-17-one]
- Early Activation-Stage CD8+ T cells: Time-averaged AUC Increase Mean ± SEM (CD3+ CD8+ CD69+ CD25−, n=36, p=0.049): 67 ± 33%
- LAK: Time-averaged AUC Increase Mean ± SEM (CD8+ CD16+, n=36, p=0.19): 13 ± 9%
- NK: Time-averaged AUC Increase Mean ± SEM (CD8−CD16+, n=36, p=0.20): 29 ± 22%
- Lin− HLA-DR+ CD11c+/CD123+ cells, median (Course 1, Baseline 3.2, n=10, p<0.001): 17.7 cells/μL
- CD8+CD16+CD38+ cells, median (Course 1, n=10, p<0.001): 27 cells/μL
- CD8−CD16+ cells, median (Course 1, n=12, p<0.001): 253 cells/μL
- CD8+CD69+CD25− cells, median (Course 1, HIV patients, 50 or 100 mg i.m. daily ×5, n=13, p<0.001): 54 cells/μL
- CD8+CD16+CD38+ cells, median (Course 2, n=4, p=0.047): 28 cells/μL
- CD8+CD69+CD25− cells, median (Course 2, n=9, p<0.001): 56 cells/μL
- CD8−CD16+ cells, median (Course 2, n=4, p=0.02): 288 cells/μL
- Lin− HLA-DR+ CD11c+/CD123+ cells, median (Course 2, baseline value from initiation of 2nd course = 6.4, n=5, p=0.02): 11.4^c cells/μL
- CD8+CD16+CD38+ cells, median (Course 3, n=4, p=0.02): 25 cells/μL
- CD8+CD69+CD25− cells, median (Course 3, n=4, p=0.04): 75 cells/μL
- CD8−CD16+ cells, median (Course 3, n=2, p=0.04): 249 cells/μL
- Lin− HLA-DR+ CD11c+/CD123+ cells, median (Course 3, baseline value from initiation of 2nd course = 6.4, n=4, p=0.04): 14.7^c cells/μL
- DC1 (CD11c+) Dendritic Cells: Time-averaged AUC Increase Mean ± SEM (Lineage− HLA-DR+ CD11c+, n=31, p=0.010): 50 ± 18%
- DC2 (CD123+) Dendritic Cells: Time-averaged AUC Increase Mean ± SEM (Lineage− HLA-DR+ CD123+, n=31, p=0.021): 32 ± 13%
- Activated T cells (CD8+ CD69+ CD25−), median (Treatment 1, treated, baseline 19): 54 (n = 13, p < 0.001) cells/μL
- Dendritic cells (Lin− HLA-DR+ CD123+/CD11+), median (Treatment 1, treated, baseline 3.5): 18 (n = 10, p = 0.001) cells/μL
- LAK cells (CD8+ CD16+ CD38+), median (Treatment 1, treated, baseline 8): 27 (n = 10, p < 0.001) cells/μL
- NK (ADCC responders) cells (CD8− CD16+), median (Treatment 1, treated, baseline 54): 253 (n = 12, p < 0.001) cells/μL
- Activated T cells (CD8+ CD69+ CD25−), median (Treatment 2, treated, baseline 19): 56 (n = 9, p < 0.001) cells/μL
- Dendritic cells (Lin− HLA-DR+ CD123+/CD11+), median (Treatment 2, treated, baseline 6.5): 11.5 (n = 5, p = 0.02) cells/μL
- LAK cells (CD8+ CD16+ CD38+), median (Treatment 2, treated, baseline 12): 28 (n = 4, p = 0.04) cells/μL
- NK (ADCC responders) cells (CD8− CD16+), median (Treatment 2, treated, baseline 58): 285 (n = 4, p = 0.02) cells/μL
- Activated T cells (CD8+ CD69+ CD25−), median (Treatment 3, treated, baseline 18): 74 (n = 4, p = 0.04) cells/μL
- Dendritic cells (Lin− HLA-DR+ CD123+/CD11+), median (Treatment 3, treated, baseline 6): 55 (n = 4, p = 0.04) cells/μL
- LAK cells (CD8+ CD16+ CD38+), median (Treatment 3, treated, baseline 12): 25 (n = 4, p = 0.02) cells/μL
- NK (ADCC responders) cells (CD8− CD16+), median (Treatment 3, treated, baseline 56): 250 (n = 2, p = 0.04) cells/μL
- CD4 IL-10 production, median % of the cells (after one course (5 daily i.m. injections), dropped from 66%): 4%
- CD4 IFNγ, median % of the cells (after one course (5 daily i.m. injections), went from 8%): 63%
- DC1 (CD11c+) Dendritic Cells: Maximum Analysis Visit Responses Mean (analysis visit day 22): 58% (22)
- NK: Maximum Analysis Visit Responses Mean (analysis visit day 36): 41% (36)
- LAK: Maximum Analysis Visit Responses Mean (analysis visit day 67): 34% (67)
- DC2 (CD123+) Dendritic Cells: Maximum Analysis Visit Responses Mean (analysis visit day 80): 44% (80)
- Total Dendritic Cells: Maximum Analysis Visit Responses Mean (analysis visit day 139): 38% (139)
- Early Activation-Stage CD8+ T cells: Maximum Analysis Visit Responses Mean (analysis visit day 153): 162% (153)
- DC1 (CD11c+) Dendritic Cells: Maximum Individual Patient Responses Mean (range) (change from baseline, n=31): 130% (−20 to 870%)
- DC2 (CD123+) Dendritic Cells: Maximum Individual Patient Responses Mean (range) (change from baseline, n=31): 100% (−30 to 480%)
- Total Dendritic Cells: Maximum Individual Patient Responses Mean (range) (change from baseline, n=31): 100% (−20 to 600%)
- Early Activation-Stage CD8+ T cells: Maximum Individual Patient Responses Mean (range) (change from baseline, n=36): 210% (0 to 3,090%)
- LAK: Maximum Individual Patient Responses Mean (range) (change from baseline, n=36): 90% (−90 to 630%)
- NK: Maximum Individual Patient Responses Mean (range) (change from baseline, n=36): 140% (−40 to 1,220%)
- Activated CD8+ T cells: Time-averaged AUC Increase Mean ± SEM (i.m. BrEA, HIV patients, CD3+ CD8+ and CD69+ or CD25+, n=36, p=0.005): 15 ± 5%
- Activated CD8+ T cells: Maximum Analysis Visit Responses Mean (i.m. BrEA, HIV patients, analysis visit day 22): 25% (22)
- Activated CD8+ T cells: Maximum Individual Patient Responses Mean (range) (i.m. BrEA, HIV patients, change from baseline, n=36): 70% (−10 to 340%)
- DC1 to DC2 Ratio: Time-averaged AUC Increase Mean ± SEM (n=31, p=0.003): 44 ± 13%
- Total Dendritic Cells: Time-averaged AUC Increase Mean ± SEM (n=31, p=0.010): 38 ± 14%

— patent US20070275936A1, “Formulations and Treatment Methods” (priority 1998, published 2007)
